According to PMC12735872, “Development of ^18F/^11C-Labeled Pyrrolo-Pyridine/Pyrimidine LRRK2 Selective PET Radioligands” (Pharmaceuticals, 2025):

Assays:
cynomolgus monkey brain = assay: In vivo PET imaging in cynomolgus monkeys; conditions: pretreatment 30 min before [^18F]1; GNE-7915 40 mg/kg, PFE-360 0.5 mg/kg iv
Description: PET measurements were led using a high-resolution research tomograph (HRRT) from Siemens Molecular Imaging (Knoxville, TN, USA). List mode data were reconstructed using the ordinary Poisson-3D-ordered subset expectation maximization (OP-3D-OSEM) algorithm, with 10 repetitions and 16 subsets while modeling the point spread function (PSF). The in-plane resolution accomplished with OP-3D-OSEM and PSF was 1.5 mm full width at half maximum (FWHM) at the center of the field of view (FOV) and 2.4 mm at 10 cm off-center.
The study was approved by the Animal Ethics Committee of the Swedish Animal Welfare Agency and was performed according to “Guidelines for planning, conducting and documenting experimental research” (Dnr 5.2.18-4170/14 issued on 11 April 2014) of the KI as well as the “Guide for the Care and Use of Laboratory Animals” [26]. NHPs were supplied by the Astrid Fagraeus Laboratory (AFL) of the Swedish Institute for Infectious Disease Control (SMI), Solna, Sweden. Anesthesia was brought by intramuscular injection of ketamine hydrochloride (approximately 10 mg/kg) at AFL and continued with a mixture of sevoflurane (0–8.0%), oxygen, and medical air through endotracheal intubation at the KI PET center. The NHP head was immobilized using a homemade fixation device. Body temperature was maintained with a Bair Hugger model 505 (Arizant Healthcare, Eden Prairie, MN, USA) and monitored via an esophageal thermometer. ECG, heart rate, respiratory rate, blood pressure, and oxygen saturation were continuously examined throughout the experiments. The fluid balance was retained with continuous infusion of saline.
A 6 min transmission scan was performed before the injection of the radioligand using a single Cs-137 source. List mode data was acquired continuously for 93 min following intravenous administration of the radioligand. Images were reconstructed into 38 frames with varying intervals: […].
For all PET measurements, radioligands were administered via intravenous injection. Regions of interest (ROIs) were manually delineated on MRI images for each NHP, for the whole brain, cerebellum, caudate, putamen, thalamus, frontal cortex, temporal cortex, amygdala, posterior cingulate cortex, anterior cingulate cortex, hippocampus, occipital cortex, parietal cortex, ventral striatum, and insula. The summed PET images over the entire duration were co-registered with the individual NHP’s MRI image. After applying the co-registration parameters to the dynamic PET data, time–activity curves were generated for each brain region for every PET measurement. The standardized uptake value (SUV) was calculated for each brain region. The total distribution volume (VT) for all three radioligands were derived using one-tissue compartment (1-TC) and two-tissue compartment (2-TC) models.
On two separate occasions, PET measurements were performed after intravenous administration of GEN-7915 or PFE-360 with a slow infusion in one NHP (NHP2). The infusion lasted for 2 min, starting 30 min before PET scanning. The pretreatment formulations were prepared by dissolving it in DMSO (5%), Kolliphor EL (15%), and PBS (80%), and the pH of the final formulation was approximately 4.5–5.0. An automated blood sampling system (ABSS) measured continuous radioactivity for the first 3 min following the radioligand injection, while manual blood samples were taken at 4, 15, 30, 60, and 90 min post-injection to measure the radioactivity and metabolism.

LRRK2 = molecular target: T1, LRRK2 (Homo sapiens, UniProt Q5S007); assay: In vitro autoradiography, human whole-hemisphere brain slices; format: binding
T1 construct: Human brains without pathological findings were acquired from the National Institute of Forensic Medicine; from tissue; host or cells: human post-mortem control brain, whole-hemisphere sections (100 µm)
T1 sequence (Q5S007 whole entry): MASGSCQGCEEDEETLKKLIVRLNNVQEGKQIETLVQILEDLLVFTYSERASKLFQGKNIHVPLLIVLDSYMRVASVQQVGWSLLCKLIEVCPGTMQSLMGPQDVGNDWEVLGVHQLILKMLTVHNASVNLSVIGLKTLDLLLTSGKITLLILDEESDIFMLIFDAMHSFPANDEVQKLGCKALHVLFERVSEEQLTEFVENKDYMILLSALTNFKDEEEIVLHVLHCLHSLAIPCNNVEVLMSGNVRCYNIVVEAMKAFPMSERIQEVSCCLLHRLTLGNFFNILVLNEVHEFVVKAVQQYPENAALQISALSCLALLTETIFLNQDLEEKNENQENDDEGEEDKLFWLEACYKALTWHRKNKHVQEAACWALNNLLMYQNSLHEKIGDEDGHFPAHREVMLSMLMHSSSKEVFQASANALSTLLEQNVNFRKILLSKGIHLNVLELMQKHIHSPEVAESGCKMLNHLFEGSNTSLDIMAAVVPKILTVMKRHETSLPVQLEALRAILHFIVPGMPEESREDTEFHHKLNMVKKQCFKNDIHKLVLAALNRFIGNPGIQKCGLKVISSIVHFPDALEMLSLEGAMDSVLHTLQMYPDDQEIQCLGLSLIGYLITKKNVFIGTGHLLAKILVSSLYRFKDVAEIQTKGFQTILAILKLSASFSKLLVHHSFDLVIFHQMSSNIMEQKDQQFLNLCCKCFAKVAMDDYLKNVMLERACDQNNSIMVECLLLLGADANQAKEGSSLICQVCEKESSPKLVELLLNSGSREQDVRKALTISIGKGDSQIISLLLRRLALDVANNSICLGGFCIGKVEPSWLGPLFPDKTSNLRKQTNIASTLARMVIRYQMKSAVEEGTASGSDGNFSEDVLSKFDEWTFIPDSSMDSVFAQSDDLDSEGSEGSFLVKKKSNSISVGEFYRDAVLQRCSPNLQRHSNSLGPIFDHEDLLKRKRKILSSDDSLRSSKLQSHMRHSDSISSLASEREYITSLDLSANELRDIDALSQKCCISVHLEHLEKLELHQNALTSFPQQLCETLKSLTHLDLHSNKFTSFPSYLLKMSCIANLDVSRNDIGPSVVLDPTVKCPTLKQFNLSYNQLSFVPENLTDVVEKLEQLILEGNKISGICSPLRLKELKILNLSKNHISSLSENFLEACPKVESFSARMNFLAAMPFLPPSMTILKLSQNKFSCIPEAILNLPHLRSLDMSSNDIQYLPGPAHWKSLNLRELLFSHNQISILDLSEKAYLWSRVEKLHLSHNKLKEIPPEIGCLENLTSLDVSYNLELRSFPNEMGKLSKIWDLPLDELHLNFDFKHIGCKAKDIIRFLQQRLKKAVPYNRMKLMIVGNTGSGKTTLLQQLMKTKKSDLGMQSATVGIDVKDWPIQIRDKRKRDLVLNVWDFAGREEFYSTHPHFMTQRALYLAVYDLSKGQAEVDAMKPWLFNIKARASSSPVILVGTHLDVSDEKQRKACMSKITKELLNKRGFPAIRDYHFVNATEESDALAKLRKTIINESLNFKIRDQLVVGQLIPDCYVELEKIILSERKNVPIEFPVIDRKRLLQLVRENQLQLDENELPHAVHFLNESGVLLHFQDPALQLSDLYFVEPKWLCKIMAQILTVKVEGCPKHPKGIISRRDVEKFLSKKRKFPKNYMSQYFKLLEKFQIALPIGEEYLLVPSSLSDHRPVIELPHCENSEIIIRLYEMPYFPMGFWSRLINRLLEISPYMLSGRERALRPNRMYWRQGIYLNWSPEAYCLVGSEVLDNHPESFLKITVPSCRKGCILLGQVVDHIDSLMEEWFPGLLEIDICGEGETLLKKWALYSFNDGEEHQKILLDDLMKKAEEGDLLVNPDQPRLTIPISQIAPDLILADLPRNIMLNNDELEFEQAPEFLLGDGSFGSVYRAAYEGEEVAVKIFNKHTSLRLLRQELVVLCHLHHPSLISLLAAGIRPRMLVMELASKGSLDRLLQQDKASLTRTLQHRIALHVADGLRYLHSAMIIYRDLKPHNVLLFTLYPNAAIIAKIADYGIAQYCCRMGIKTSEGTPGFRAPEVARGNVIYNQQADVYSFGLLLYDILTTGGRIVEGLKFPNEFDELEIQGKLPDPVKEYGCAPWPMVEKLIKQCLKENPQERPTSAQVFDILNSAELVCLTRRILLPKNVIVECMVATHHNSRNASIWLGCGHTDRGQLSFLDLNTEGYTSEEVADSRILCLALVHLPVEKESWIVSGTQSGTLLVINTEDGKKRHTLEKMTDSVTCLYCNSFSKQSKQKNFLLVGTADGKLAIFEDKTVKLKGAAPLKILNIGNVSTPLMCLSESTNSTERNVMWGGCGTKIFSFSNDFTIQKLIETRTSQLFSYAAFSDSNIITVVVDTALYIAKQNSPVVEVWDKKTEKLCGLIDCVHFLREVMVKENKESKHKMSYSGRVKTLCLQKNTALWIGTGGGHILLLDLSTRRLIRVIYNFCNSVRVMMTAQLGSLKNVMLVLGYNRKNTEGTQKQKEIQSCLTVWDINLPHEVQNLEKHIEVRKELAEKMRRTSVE
Experimental: Human brains without pathological findings were acquired from the National Institute of Forensic Medicine at Karolinska Institutet in Stockholm, Sweden. These brains were obtained during forensic autopsies (designated as control brain) and were processed in a manner like previously described methods. […] The brain was removed, and its tissues were kept in −85 °C until the sectioning process. The whole brain hemispheric slices were subsequently maintained at −25 °C until the commencement of autoradiography procedures. […] The sectioning of the brain and the autoradiography experiments were performed at the Psychiatry section, Department of Neuroscience, Karolinska Institutet, Sweden.
Whole brain hemispheres were sectioned into horizontal slices with a thickness of 100 µm using a Leica cryomacrocut system. The autoradiographic procedures followed the same protocols established in previous studies conducted in our laboratory. The whole-hemisphere sections of 100 micron thickness were incubated for 90 min at room temperature with their corresponding radiotracer (4 MBq/200 mL) in TRIS buffer (pH 7.4) containing sodium chloride (120 mM), potassium chloride (5 mM), calcium chloride (2 mM), and albumin (0.1% w/v). After incubation, sections were washed three times in the same buffer at room temperature for five minutes each, briefly dipped in ice-cold distilled water, dried, and then placed in the phosphor imaging plates. Binding density standards were prepared by serial dilution of the radioligand stock solution in the assay buffer. Readings were taken with the Fujifilm BAS-5000 (Fujifilm, Tokyo, Japan), while quantitative analysis was conducted with the Multi Gauge 3.2 image analysis software (Fujifilm, Tokyo, Japan). For blocking experiments, adjacent brain sections were co-incubated with LuAF66583 (0.1 µM or 10 µM).

Structure (SMILES) | Blocking effect on [^18F]1 brain binding in vivo (cynomolgus monkey brain) | Effect on [^18F]1 binding (ARG) (LRRK2; human brain slice, pre-incubation with 0.1 µM) | Effect on [^18F]2 binding (ARG) (LRRK2; human striatum, hippocampus, cerebellum, pretreated with 10 µM)
CCNc1nc(Nc2cc(F)c(C(=O)N3CCOCC3)cc2OC)ncc1C(F)(F)F [GEN-7915, reference compound] | no clear blocking effects | – | –
Cn1cc(-c2c[nH]c3ncnc(N4CCOCC4)c23)cc1C#N [PFE-360, reference compound] | no clear blocking effects | did not significantly reduce | significantly reduced
